Assay results taken from patent US4877893A, “Process for the preparation of 2-(O-alkyl)-2-thio-1,3,2-oxathiophospholanes” (priority 1987, dated 1989).

Experiments:
Assay in all cases: Fungicidal effect on infected agar nutrient media, colony diameter
Type in all cases: cell-based
Sclerotinia sclerotinia = details: 3rd day after treatment, untreated control 41.7
Experimental: (§1) Agar nutrient media (Diameter 70 MM, thickness 10 mm) infected by Sclerotonia sclerotinia suspension are treated with 20 EC formulations prepared according to Example 27 and comprising 1, 10, 100 and 1000 ppm, respectively of the active ingredient of the Formula I. The fungicidal effect of the compositions is evaluated on the 3rd day after treatment by measuring the diameter of the Fungi colonies.

Penicillium cyclopium = details: 7th day after treatment, untreated 26.5
Experimental: as §1
The series of measureents described in Example 35 is carried out except that the agar nutrient media are infected by a Penicillium cyclopium Fungi strain and the test is evaluated on the 7th day after treatment.

Alternaria tenuis = details: 5th day after treatment, untreated control 36.8
Experimental: as §1
The series of measurements according to Example 35 is carried out except that the agar nutrient media are infected by Alternaria Tenius and evaluation is accomplished on the 5th day after treatment.

SMILES	Diameter of colony (mm) (Sclerotinia sclerotinia; 1 ppm)	Diameter of colony (mm) (Sclerotinia sclerotinia; 10 ppm)	Diameter of colony (mm) (Sclerotinia sclerotinia; 100 ppm)	Diameter of colony (mm) (Sclerotinia sclerotinia; 1000 ppm)	Diameter of colony (mm) (Penicillium cyclopium; 1 ppm)	Diameter of colony (mm) (Penicillium cyclopium; 10 ppm)	Diameter of colony (mm) (Penicillium cyclopium; 100 ppm)	Diameter of colony (mm) (Penicillium cyclopium; 1000 ppm)	Diameter of colony (mm) (Alternaria tenuis; 1 ppm)	Diameter of colony (mm) (Alternaria tenuis; 10 ppm)	Diameter of colony (mm) (Alternaria tenuis; 100 ppm)	Diameter of colony (mm) (Alternaria tenuis; 1000 ppm)
CC1CSP(=S)(OCCCl)O1 (stereo not drawn) [Compound 4, 2-(0-2'-chloroethyl)-2-thio-5-methyl-1,3,2-oxathiophospholane]	34.6	27.6	0	0	24.1	19.4	9.0	0	32.6	23.7	6.5	0
CC(I)C(C)OP1(=S)OC(C)C(C)S1 (stereo not drawn) [Compound 45]	39.2	30.0	1.6	0	24.2	15.5	6.0	0	34.0	20.4	5.7	0
CC(Cl)C(C)OP1(=S)OCCS1 (stereo not drawn) [Compound 28]	33.6	27.4	0	0	18.2	14.7	5.7	0	34.2	22.4	4.8	0
CC1CSP(=S)(OC(C)C(C)Br)O1 (stereo not drawn) [Compound 38]	37.8	31.3	0	0	24.3	18.6	7.4	0	30.2	24.5	6.9	0
CCCC(C)OP1(=S)OCCS1 (stereo not drawn) [Compound 62, 2-(0-1'-methyl-n-butyl)-2-thio-1,3,2-oxathiophospholane]	37.0	30.2	3.9	0	26.1	20.2	7.4	0	34.1	25.7	6.9	0
CC(Cl)C(C)OP1(=S)OC(C)C(C)S1 (stereo not drawn) [Compound 43, 2-(0-1',2'-dimethyl-2'-chloroethyl)-2-thio-4,5-dimethyl-1,3,2-oxathiophospholane]	37.6	28.2	2.4	0	25.2	18.4	6.3	0	32.4	23.3	6.2	0
CC(CI)OP1(=S)OCCS1 (stereo not drawn) [Compound 12]	35.9	27.4	3.7	0	25.8	16.1	4.7	0	34.5	22.0	4.8	0
CC(Cl)COP1(=S)OC(C)CS1 (stereo not drawn) [Compound 22, 2-(0-2'-methyl-2'-chloroethyl)-2-thio-5-methyl-1,3,2-oxathiophospholane]	37.8	30.1	2.9	0	24.6	16.2	6.7	0	34.4	26.1	8.7	0
CC(Cl)COP1(=S)OCC(C)S1 (stereo not drawn) [Compound 25]	38.8	30.3	1.0	0	26.0	19.8	7.8	0	33.8	24.0	6.5	0
